# Test results published in patent publication US8592383B2, “Cycloalkyl-fused tetrahydroquinolines as CRTH2 receptor modulators” (Merck Sharp & Dohme Corp., priority 2011, dated 2013).
# Biological target: T1, hCRTH2 (Homo sapiens, UniProt Q9Y5Y4)
# T1 sequence (Q9Y5Y4 1-395): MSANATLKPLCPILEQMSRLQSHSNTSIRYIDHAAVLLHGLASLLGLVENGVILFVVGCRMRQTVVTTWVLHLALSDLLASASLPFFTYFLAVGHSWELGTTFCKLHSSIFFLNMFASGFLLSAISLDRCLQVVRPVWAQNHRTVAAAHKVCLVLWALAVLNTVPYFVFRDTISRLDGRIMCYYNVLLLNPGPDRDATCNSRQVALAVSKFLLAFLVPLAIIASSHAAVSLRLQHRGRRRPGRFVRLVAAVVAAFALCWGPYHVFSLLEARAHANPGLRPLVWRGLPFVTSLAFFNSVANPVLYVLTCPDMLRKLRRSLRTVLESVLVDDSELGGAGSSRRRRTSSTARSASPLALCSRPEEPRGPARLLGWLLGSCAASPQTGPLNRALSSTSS
# Assay: not given
# Parameters: expressed in transfected cells; host or cells: HEK (human embryonic kidney) cells expressing hCRTH2
# Settings: Radioligand Binding Assay B; Table B, rated A-D
# Protocol: The filters were then washed with 4 mL of the same buffer and residual radioligand bound to the filter was determined by liquid scintillation counting following equilibration in 25 μl Ultima Gold F™ (Unifilter) (Packard).
row,Ki,SMILES
1,20.1 to 200 nM,"O=C(O)CCC(=O)N(C1CC1)C1c2ccccc2N(c2nnc(-c3ccccc3)o2)C2CCCC21 (racemic) [36A, racemic 4-{cyclopropyl[cis, cis-4-(5-phenyl-1,3,4-oxadiazol-2-yl)-2,3,3a,4,9,9a-hexahydro-1H-cyclopenta[b]quinolin-9-yl]amino}-4-oxobutanoic acid]"

# Biological target: T1, hCRTH2
# Assay: biochemical
# Settings: Ki (nM)
row,SMILES,Ki
1,"O=C(O)CCC(=O)N(C1CC1)[C@@H]1c2ccccc2N(C(=O)OCc2ccc(F)cc2)[C@@H]2CCC[C@@H]21 (single isomer, unassigned) [compound 22, 4-[(4-Fluorophenyl)methyl]cis,cis-[(3-carboxy-1-oxopropyl)cyclopropylamino]-1,2,3,3a,9,9a-hexahydro-4H-cyclopenta[b]quinoline-4-carboxylate]",5.1 to 20 nM

# Same assay, conditions: Ki, Radioligand Binding Assay A; 3.0 nM [3H]PGD2, HEK-hCRTH2 membranes
row,Ki,SMILES
1,36 nM,"O=C(O)CCC(=O)N(C1CC1)C1c2ccccc2N(C(=O)c2ccco2)C2CCCC21 (racemic) [17BL, 4-(cyclopropyl(cis,cis-4-(furan-2-carbonyl)-2,3,3a,4,9,9a-hexahydro-1H-cyclopenta[b]quinolin-9-yl)amino)-4-oxobutanoic acid]"
2,28.5 nM,"CCOc1cnc(-c2ccc(C(=O)N3c4ccccc4C(N(C(=O)CCC(=O)O)C4CC4)C4CCCC43)cc2)nc1 (racemic) [18P, 4-[cyclopropyl[cis,cis-4-[4-(5-ethoxy-2-pyrimidinyl)benzoyl]-2,3,3a,4,9,9a-hexahydro-1H-cyclopenta[b]quinolin-9-yl]amino]-4-oxobutanoic acid]"
3,605 nM,"CN(C(=O)CCC(=O)O)C1c2ccccc2N(C(=O)OCc2ccccc2)C2CCCC12 (racemic) [17U, 4-(phenylmethyl) cis,cis-9-[(3-carboxy-1-oxopropyl)methylamino]-1,2,3,3a,9,9a-hexahydro-4H-cyclopenta[b]quinoline-4-carboxylate]"
4,4.97 nM,"CCN(C(=O)CCC(=O)O)C1c2ccccc2N(C(=O)C2CC2c2ccccc2)C2CCCC12 (single isomer, unassigned) [compound 69, 4-[ethyl[cis, cis-2,3,3a,4,9,9a-hexahydro-4-[(2-phenyl-1-cyclopropyl)carbonyl]-1H-cyclopenta[b]quinolin-9-yl]amino]-4-oxobutanoic acid]"
5,1.5 nM,"O=C(O)CCC(=O)N(C1CC1)C1c2ccc(Cl)cc2N(C(=O)c2ccc(OC(F)(F)F)cc2)C2CCC21 (single isomer, unassigned) [27K, 4-[[cis, cis-5-chloro-1,2,2a,3,8,8a-hexahydro-3-[4-(trifluoromethoxy)benzoyl]cyclobuta[b]quinolin-8-yl]cyclopropylamino]-4-oxobutanoic acid]"
6,21.2 nM,"O=C(O)CCCN(C1CC1)C1c2ccccc2N(C(=O)OCc2ccccc2)C2CCCC21 (single isomer, unassigned) [compound 60, 4-(phenylmethyl) cis, cis-[(3-carboxypropyl)cyclopropylamino]-1,2,3,3a,9,9a-hexahydro-4H-cyclopenta[b]quinoline-4-carboxylate]"
7,34.2 nM,"O=C(O)CCC(=O)N(C1CCC1)[C@@H]1c2ccccc2N(C(=O)c2cccc(OC(F)(F)F)c2)[C@@H]2CCC[C@@H]21 (single isomer, unassigned) [17DA, 4-[cyclobutyl[cis,cis-2,3,3a,4,9,9a-hexahydro-4-[3-(trifluoromethoxy)benzoyl]-1H-cyclopenta[b]quinolin-9-yl]amino]-4-oxobutanoic acid]"
8,10.9 nM,"O=C(O)CCC(=O)N(C1CCC1)C1c2ccc(Cl)cc2N(C(=O)c2ccc(F)c(F)c2)C2CCCC21 (single isomer, unassigned) [17Co, 4-[[cis,cis-6-chloro-4-(3,4-difluorobenzoyl)-2,3,3a,4,9,9a-hexahydro-1H-cyclopenta[b]quinolin-9-yl]cyclobutylamino]-4-oxobutanoic acid]"
9,4.7 nM,"O=C(O)CCC(=O)N(C1CC1)C1c2ccc(Cl)cc2N(C(=O)OCc2ccccc2)C2CCCC21 (single isomer, unassigned) [9A, 4-(phenylmethyl) cis,cis-[(3-carboxy-1-oxopropyl)cyclopropylamino]-6-chloro-1,2,3,3a,9,9a-hexahydro-4H-cyclopenta[b]quinoline-4-carboxylate]"
10,638 nM,"O=C(O)COC(=O)N(C1CC1)C1c2ccccc2N(c2nnc(Cc3ccc(OC(F)(F)F)cc3)o2)C2CCCC21 (single isomer, unassigned) [38G, [[[cyclopropyl[cis,cis-2,3,3a,4,9,9a-hexahydro-4-[5-[[4-(trifluoromethoxy)phenyl]methyl]-1,3,4-oxadiazol-2-yl]-1H-cyclopenta[b]quinoline-9-yl]amino]carbonyl]oxy]acetic acid]"
11,6.9 nM,"Cc1ccc2c(c1)C(N(C(=O)CCC(=O)O)C1CC1)C1CCCC1N2C(=O)c1ccc(OC(F)(F)F)cc1 (single isomer, unassigned) [compound 51, 4-[Cyclopropyl[cis,cis-2,3,3a,4,9,9a-hexahydro-7-methyl-4-[4-(trifluoromethoxy)benzoyl]-1H-cyclopenta[b]quinolin-9-yl]amino]-4-oxobutanoic acid]"
12,15.7 nM,"CCN(C(=O)CCC(=O)O)C1c2ccccc2N(C(=O)OCc2ccc(F)c(F)c2)C2CCCC12 (single isomer, unassigned) [compound 72, 4-[(3,4-difluorophenyl)methyl] cis, cis-[(3-carboxy-1-oxopropyl)ethylamino]-1,2,3,3a,9,9a-hexahydro-4H-cyclopenta[b]quinoline-4-carboxylate]"
13,2.54 nM,"O=C(O)CCCN(C1CC1)[C@@H]1c2ccccc2N(C(=O)c2ccc(OC(F)(F)F)cc2)[C@@H]2CCC[C@@H]21 (racemic) [compound 44, 4-[Cyclopropyl[cis,cis-2,3,3a,4,9,9a-hexahydro-4-[4-(trifluoromethoxy)benzoyl]-1H-cyclopenta[b]quinolin-9-yl]amino]butanoic acid]"
14,1080 nM,"CCN(C(=O)CCC(=O)O)C1c2ccccc2N(C(=O)OCc2cc(F)cc(F)c2)C2CCCC12 (single isomer, unassigned) [22A, 4-[(3,5-difluorophenyl)methyl] cis, cis-[(3-carboxy-1-oxopropyl)ethylamino]-1,2,3,3a,9,9a-hexahydro-4H-cyclopenta[b]quinoline-4-carboxylate]"
15,9.8 nM,"O=C(O)CCC(=O)N(C1CC1)C1c2ccccc2N(C(=O)c2ccc(-c3cncs3)cc2)C2CCCC21 (racemic) [18o, 4-[cyclopropyl[cis,cis-2,3,3a,4,9,9a-hexahydro-4-[4-(5-thiazolyl)benzoyl]-1H-cyclopenta[b]quinolin-9-yl]amino]-4-oxobutanoic acid]"

row,SMILES,Ki
1,"O=C(O)c1ccccc1C(=O)N(C1CC1)[C@@H]1c2ccccc2N(C(=O)c2ccc(OC(F)(F)F)cc2)[C@@H]2CCC[C@@H]21 (racemic) [17Ci, 2-[[cyclopropyl[cis,cis-2,3,3a,4,9,9a-hexahydro-4-[4-(trifluoromethoxy)benzoyl]-1H-cyclopenta[b]quinolin-9-yl]amino]carbonyl]benzoic acid]",838 nM
2,"O=C(O)CCC(=O)N(C1CC1)C1c2cc(F)ccc2N(C(=O)c2ccc(OC(F)(F)F)cc2)C2CCCC21 (single isomer, unassigned) [compound 134, 4-[cyclopropyl[cis, cis-7-fluoro-2,3,3a,4,9,9a-hexahydro-4-[4-(trifluoromethoxy)benzoyl]-1H-cyclopenta[b]quinolin-9-yl]amino]-4-oxobutanoic acid]",236 nM
3,"O=C(O)CCC(=O)N(C1CC1)[C@H]1c2cc(F)ccc2N(C(=O)c2ccc(OC(F)(F)F)cc2)[C@H]2CCC[C@H]21 [compound 17, 4-(cyclopropyl((3aS,9R,9aR)-7-fluoro-4-(4-(trifluoromethoxy)benzoyl)-2,3,3a,4,9,9a-hexahydro-1H-cyclopenta[b]quinolin-9-yl)amino)-4-oxobutanoic acid]",5.1 nM
